Ends that are not written are not given here.

In assay [1] the test system is pmaxGFP plasmid DNA. Kind of assay: Electrophoretic mobility shift assay in agarose gel, NLS peptides in water (FIG. 1). Particulars: 1 μg DNA with μg amounts of peptide in water, 20 μl, 20° C., 30 min; 0.6% agarose gel. The class given is binding. The procedure:
1 μg DNA was incubated with peptide (μg amounts as indicated in the figure) in water in a total volume of 20 μl at 20° C. for 30 min. After that loading dye was added, each sample filled into a slot of a 0.6% agarose gel (Tris-acetate/EDTA as running buffer, pH 8.5). Electrophoresis was run at 90V for 120 min. P=1 μg plasmid DNA without peptide. M=kb marker (bands indicating 1.5, 2, 3, 4, 5, and 6 kb). The gel was stained with Ethidiumbromide for 10 min, then documented using a BioRad Gel-Doc System.
DNA interacting unspecifically with peptides through positively charged amino acids may mask positively charged nuclear localisation sequences (NLS) and interfere with their function in nuclear transport.
Peptides were synthesized by F-moc-Chemistry and HPLC-purified to 95% purity. The carboxyl-group at the C-terminus was amidated and the N-terminal amino-group was actylated, in order to eliminate additional charges.
DNA was pmaxGFP plasmid DNA ([…] size).
(§1) The NLS on the NLS-1 peptide may be masked and altered in its capacity to mediate nuclear translocation, whereas all other peptides are still functioning in nuclear import.
(In general: A gel shift assay detects complexes by their altered migration in electrophoresis.)

Assay [2] has as its system pmaxGFP plasmid DNA. Kind of assay: Electrophoretic mobility shift assay in agarose gel, peptides with different positive net charges (FIG. 2). Particulars: 1 μg DNA with 1 nM peptide in water, 20 μl, 20° C., 30 min; 0.6% agarose gel. The class given is binding. The protocol: 1 μg DNA was incubated with 1 nM peptide in water in a total volume of 20 μl at 20° C. for 30 min. After that loading dye was added, each sample filled into a slot of a 0.6% agarose gel (Tris-acetate/EDTA as running buffer, pH 8.5). Electrophoresis was run at 90V for 120 min. P=1 μg plasmid DNA without peptide. M=kb marker (bands indicating 1.5, 2, 3, 4, 5, and 6 kb). The gel was stained with Ethidiumbromide for 10 min, then documented using a BioRad Gel-Doc System.
DNA interacting unspecifically with peptides through positively charged amino acids may mask positively charged nuclear localisation sequences (NLS) and interfere with their function in nuclear transport. […] Peptides were designed with different positive net charges, 5+, 4+, 3+, 2+, 0±, by exchanging neutral amino acids for acidic ones or vice versa acidic for neutral amino acids
Peptides were synthesized by F-moc-chemistry and HPLC-purified to 95% purity. The carboxyl-group at the C-terminus was amidated and the N-terminal amino-group was actylated, in order to eliminate additional charges.
as §1

For assay [3], the system named is pmaxGFP plasmid DNA. Kind of assay: DNA-band shift of plasmid DNA with positively charged peptides and peptide-NLS in Opti-MEM (FIGS. 3 and 4). The class given is binding. Particulars: 90 ng or 135 ng DNA, various peptide amounts in Opti-MEM, 20° C., 30 min; comparison between peptides. The procedure: Plasmid DNA (90 ng per sample) was incubated with different amounts (numbers above each lane indicate pico-mole amounts per sample) of positively charged peptides (see list of peptide sequences for details) in Opti-MEM as described below.
Several positively charged peptides, as well as positively charged peptides bearing a positively charged NLS (NLS1) or a neutral NLS (NLS2) were tested for their ability to complex DNA and form higher aggregates, visible as shifts of the electrophoretic mobility of the DNA.
Peptides were synthesized by F-moc-chemistry and HPLC-purified to 95% purity. The carboxyl-group at the C-terminus was amidated and the N-terminal amino-group was actylated, in order to eliminate additional charges. U represents the spacer molecule 8-amino-3,6-dioxaoctanoic acid (UUU (U3) represents a trimer of U):
Lyophilized peptides, provided by supplier, were dissolved in distilled water to 0.1 mM. DNA was pmaxGFP plasmid DNA, 3.7 kb size (amaxa AG, Cologne), dissolved in water at 1 mg/ml. The plasmid encodes a green fluorescent protein (GFP).
For DNA-band shift experiments 90 ng or 135 ng DNA, resp., were incubated with various amounts of peptide (indicated in the figure) in Opti-MEM (Invitrogen) in a total volume of 60 μl or 90 μl, resp., at 20° C. for 30 min. Loading dye was added before each sample was filled into a slot of a 0.6% agarose gel (40 mM Tris-acetate/1 mM EDTA as running buffer, pH 8.0). Electrophoresis was run at 90V for 120 min.
P=90 ng plasmid DNA without peptide M=kb marker (bands indicating 0.5, 1, 1.5, 2, 3, 4, 5, 6, 8, and 10 kb).
The gel was stained with Ethidiumbromide for 10 min, then documented using a BioRad Gel-Doc System.
With increasing amounts of peptide the DNA band is gradually shifting, indicating decreased electrophoretic mobility due to higher molecular size of the peptide-DNA complexes and due to decrease in negative charge of the DNA compensated by the positively charged peptides. As the concentration of the peptide further increases, the molecular weight of the complexes increases as well. The complexes are therefore hardly moving into the gel, the bands appear right below the loading slot. The plasmid DNA is represented by two bands in the gel, one dominant band of super-coiled slightly above 2 kb, and a weaker band between 3 and 4 kb showing the relaxed plasmid DNA.

Assay [4] concerns Human Umbilical Vein Endothelial Cells (HUVEC). Kind of assay: Transfection of HUVEC with HiFect and peptide-NLS, GFP expression by flow cytometry. Format: cell-based. Particulars: HiFect, 1.5 μg DNA, 24 hours post transfection, FIG. 8 and FIG. 9. The procedure: (§2) Cells were grown and seeded as described below. FACS data of duplicate samples are shown.
(§3) Cells were grown and seeded as described below. FACS data of mean values of the duplicate samples are shown.
(§4) Human Umbilical Vein Endothelial Cells (HUVEC, from LONZA) were grown in EGM-2 medium (Bullet Kit, LONZA) and seeded in 12-well plates one day before transfection at a density of 1.2×10^5 cells per well in 1 ml EGM-2 medium (LONZA).
(§5) Transfection reagents were ExGen500 (Fermentas) and HiFect (amaxa) used according to manufacturer's protocols. Plasmid-DNA (1.5 μg), coding for green fluorescent protein (pmaxGFP, amaxa) was complexed with peptides (amounts as indicated in the figures) for 30 min at room temperature prior to mixing with transfection reagent.
(§6) For transfection with HiFect complex formation of DNA and peptide was done in 250 μl Opti-MEM (Invitrogen) for each sample.
Complete transfection samples were added to HUVEC in Opti-MEM, incubated for 1 h at 37° C./5% CO2 in a humidified incubator. Medium was aspirated, cells washed with PBS twice. […] Expression of maxGFP was measured by flow cytometry and expressed as transfection efficiency (percentage of GFP-positive cells of all viable cells) and X-mean (mean fluorescent intensity of the cells) 24 h after transfection (HUVEC), 48 h or 72 h after transfection in the case of PC12.
(In general: In flow cytometry, cells or beads pass a laser one at a time.)

Assay [5] has the same test system. Kind of assay: Transfection of HUVEC with ExGen500 and peptide-NLS, GFP expression by flow cytometry. The class given is cell-based. Particulars: for transfection efficiency (percentage of GFP-positive cells of all viable cells): ExGen500, 1.5 μg DNA, 24 hours post transfection; for change of transfection efficiency (in words): FIG. 5 and FIG. 6. The procedure: as §2
Cells were grown and seeded as described below. Mean values of the duplicate samples are shown.
as §4, §5
For transfection with ExGen500 complex formation was done in 30 μl 150 mM NaCl solution. These preformed DNA-peptide complexes were added to transfection reagent (diluted in Opti-MEM or 150 mM NaCl according to manufacturer's protocols) and incubated.
Complete transfection samples were added to HUVEC in Opti-MEM, incubated for 1 h at 37° C./5% CO2 in a humidified incubator. Medium was aspirated, cells washed with PBS twice. Fresh medium was added, and cells were incubated for another 23 h, then prepared for flow cytometry. To differentiated PC12 transfection samples were added in Opti-MEM, incubated for 1 h. After supernatant was removed fresh medium was added. Expression of maxGFP was measured by flow cytometry and expressed as transfection efficiency (percentage of GFP-positive cells of all viable cells) and X-mean (mean fluorescent intensity of the cells) 24 h after transfection (HUVEC), 48 h or 72 h after transfection in the case of PC12.

Assay [6] deals with neuronally differentiated PC12 cells. The assay can be described thus: Transfection of neuronally differentiated PC12 cells with HiFect and peptide-NLS, GFP expression by flow cytometry. Format: cell-based. Particulars: differentiated PC12, HiFect, 1 μg DNA. The protocol:
as §3
PC12 cells (from ATCC) were grown in F-12K medium (ATCC) with 15% horse serum (Gibco) and 2.5% foetal calf serum (ATCC). Cells were seeded in 12-well plates; 5×10^4 coated with collagen (from rat tail (SIGMA), 60 μg per well, dissolved in 0.005% acetic acid/30% ethanol at 60 μg per ml). After one day of culture nerve growth factor (NGF-β from SIGMA, 100 ng/ml final concentration) was added to differentiate neuronal cells. 7 days after start of differentiation, cells were used for transfection.
Transfection reagents were ExGen500 (Fermentas) and HiFect (amaxa) used according to manufacturer's protocols. […]
as §6
Complete transfection samples were added to HUVEC in Opti-MEM, incubated for 1 h at 37° C./5% CO2 in a humidified incubator. Medium was aspirated, cells washed with PBS twice. Fresh medium was added, and cells were incubated for another 23 h, then prepared for flow cytometry. […] Expression of maxGFP was measured by flow cytometry and expressed as transfection efficiency (percentage of GFP-positive cells of all viable cells) and X-mean (mean fluorescent intensity of the cells) 24 h after transfection (HUVEC), 48 h or 72 h after transfection in the case of PC12. […]

Turning to “GSGSPKKKRKVGSG (Ac-GSGSPKKKRKVGSG-NH2) [NLS-1, SV40 large T-antigen core NLS with glycine and serine flanks]”, the “alteration of the electrophoretic mobility of DNA (binding to DNA, aggregates)” value with pmaxGFP plasmid DNA [1] was “does bind to DNA and forms aggregates”; in the assay with pmaxGFP plasmid DNA [2], “do bind to DNA and form aggregates”.
Turning to “RKKRKRKKRKRKKRKRKKRKGGGS (Ac-RKKRKRKKRKRKKRKRKKRKGGGS-NH2) [RKK20GGGS]”, in the assay on pmaxGFP plasmid DNA [3], the “peptide amount needed to form a high molecular weight complex / total band shift” value was “cause a total shift to decreased electrophoretic mobility at lower peptide amounts than K16GGGS and K16U3”.
As to “RKKRK RKKRK RKKRK RKKRK-UUU-EEDTP PKKKR KVED [RKK20U3-NLS2]”, the “increase in transfection efficiency, factor” value is 2 in assay [4] and 1.2 in assay [5] (ExGen500, 24 h, compared to DNA transfected without any peptide or complexed with RKK20GGGS peptide without NLS, FIG. 6). Further, the “peptide amount needed to form a high molecular weight complex / total band shift” value in the assay on pmaxGFP plasmid DNA [3] is listed as “seems to increase the peptide amount necessary for a total band shift”. Further, the “peptide amount sufficient for increase in transfection efficiency (in words)” value in assay [5] (ExGen500, FIG. 5 versus FIG. 6) was “lower amount of RKKU3-NLS2 than of K16U3-NLS2 is sufficient”.
For the substance “KKKKK KKKKK KKKKK K-UUU (Ac-KKKKKKKKKKKKKKKK; not fully specified (C-terminus); printed as KKKKK KKKKK KKKKK K-UUU) [K16U3]”, the “peptide amount needed to form a high molecular weight complex / total band shift” value in the assay with pmaxGFP plasmid DNA [3] is “form a high molecular weight complex (i.e. no migration into the gel) at the same concentrations”. In addition, the “transfection efficiency (percentage of GFP-positive cells of all viable cells)” value in assay [5] (FIG. 5) came out at 49.5%. Besides, in assay [5] (ExGen500, 24 h), the “change of transfection efficiency (in words)” value (shortened to “change”) was “decreasing transfection efficiency”.
For “KKKKKKKKKKKKKKKKKKKKKKKKKGGGS (KKKKKKKKKKKKKKKKKKKKKKKKKGGGS; DNA-anchoring peptide) [K25GGGS]”, the “peptide amount needed to form a high molecular weight complex / total band shift” value in the assay on pmaxGFP plasmid DNA [3] was “cause a total shift to decreased electrophoretic mobility at lower peptide amounts than K16GGGS and K16U3”.
“RKKRK RKKRK RKKRK RKKRK-UUU-GSGSP KKKRK VGSG [RKK20U3-NLS1]”: the “peptide amount needed to form a high molecular weight complex / total band shift” value in the assay with pmaxGFP plasmid DNA [3] was “does not behave much differently to the RKK20GGGS peptide”. Besides, the “change” value in assay [5] (ExGen500, 24 h) was “increase is higher for the NLS2-peptide than for the NLS1-bearing peptide”.
For the substance “KKKKK KKKKK KKKKK K-UUU-GSGSP KKKRK VGSG [K16U3-NLS1]”, the “change” value in assay [5] (ExGen500, 24 h) is “increase of transfection efficiency is less distinctive”.
Regarding “KKKKK KKKKK KKKKK K-UUU-EEDTP PKKKR KVED [K16U3-NLS2]”, the “maximum increase in transfection efficiency, factor” value in assay [6] (72 hours post transfection, compared to HiFect without peptide, FIG. 10) is on record as 2.6. For the same substance, the “transfection efficiency (percentage of GFP-positive cells of all viable cells)” value in assay [5] (FIG. 5) came out at 69%. In addition, in assay [5] (ExGen500, 24 h, compared to peptide K16U3 without NLS, FIG. 5), the “increase of transfection efficiency, factor” value worked out at 1.4.
In the case of “RKKRK RKKRK RKKRK RKKRK-PEG27- EEDTP PKKKR KVED [RKK20-PEG27-NLS2]”, the “maximum increase in transfection efficiency, factor” value in assay [6] (compared to peptide RKK20 without NLS, 200 pmol resp., FIG. 11) turned out to be 2.8. For the same substance, the “increase in transfection efficiency, factor” value in assay [4] is given as 1.5; in assay [5] (ExGen500, 24 h, FIG. 7, comparator not stated) it was 1.2. Moreover, the “peptide amount needed to form a high molecular weight complex / total band shift” value in the assay with pmaxGFP plasmid DNA [3] is “behaves similarly”.
Regarding “KKKKK KKKKK KKKKK KGGGS (Ac-KKKKKKKKKKKKKKKKGGGS-NH2) [K16GGGS]”, the “peptide amount needed to form a high molecular weight complex / total band shift” value in the assay on pmaxGFP plasmid DNA [3] is on record as “form a high molecular weight complex (i.e. no migration into the gel) at the same concentrations”.

For the origin of these results see US20090253206A1, “NUCLEAR TRANSPORT AGENT AND METHOD FOR PRODUCING SAID AGENT” (LONZA COLOGNE AG, priority 2006, published 2009).
